Values of other authors, collected in US20180256731A1, “NOVEL INSULIN ANALOG AND USE THEREOF” (HANMI PHARM. CO., LTD, priority 2013, published 2018).

Conditions: commercially available long-acting insulin

Substance | lasting for (duration) [h]
insulin detemir | 18 to 22
insulin glargine | 20 to 22
